Several values for one entry are separate records, joined by “and”; a condition that tells them apart may be missing. Equal entries are not always repeated. Structures can show the parent of a compound that is named as a salt. Where two headings read alike, the source gives them in different places.
Legend:
[1] = test system: mouse's leaching cell solution (abdominal cavity cells), histamine release by 48/80 compound; assay: Drug inhibiting effect on histamine leaching from mouse abdominal cavity cells treated with 48/80 compound; format: cell-based; settings: testing drug 100 μg/ml; for inhibition at 100 µg/mL: Mus musculus
Description: This is a comparative testing for drug depressing effect on the amount of leaching histamines when is treated with 48/80 (Sigma, St. MO, USA) compound.
(1). Preparation of Leaching Cell Solution from Mouse Body.
A mouse is killed and bloodletting. Then 10 ml of Locke's solution containing 0.1% bovine serum protein is injected into its abdominal cavity. After abdominal cavity being light massaged, the cavity is cut and the Locke's solution is removed. Cavity is washed with another 5 ml of Locke's solution, and this washed solution is added to the latter one. This combined solution is centrifuged at 600 rpm for 5 minutes. The sediments are washed with 5 ml of cool Locke's solution. Adding 3 ml of cold Locke's solution to the washed sediments, then a leached cell solution of abdominal cavity is obtained. (The composition of Locke's solution is: NaCL […], KCL 0.2%, CaCL2 0.15%, glucose 1.0%, in w/v, and the rest distillated water.)
(2). Drug Inhibiting Effect on the Amount of Leaching Histamines when Treated with 48/80 Compound.
1.0 ml of each of those solutions in last term is mixed with 0.3 ml of mouse's leaching cell solution and 0.5 ml of Locke's solution. This mixture is cultivated at 37° C. for 5 minutes. Then adding 0.2 ml of Locke's solution of 48/80 compound (1 mg/100 ml) and cultivated at 37° C. for 10 minutes. Then the reaction is stopped by cooling, and centrifuged at 2,500 rpm for 10 minutes. 1.7 ml of decanted solution and 0.3 ml of sediments are obtained.
0.1 ml of water and 0.2 ml of 100% trichloroacetic acid are added to the decanted solution. 1.5 ml of Locke's solution and 0.2 ml of 100% trichloroacetic acid are added to the sediments washed solution. They are cultivated at room temperature for 30 minutes. After cultivation, the mixtures are centrifuged at 3,000 rpm for 15 minutes, respectively. 0.35 ml of each of the former two solutions is sampled. In each sample, 1.65 ml of water, 0.4 ml of 1N NaOH and 0.1 ml of 0.5% OPT (o-phthalic aldehyde) in methanol are added and cultivated at room temperature for 4 minutes. The reaction is stopped by adding 0.2 ml of 2M citric acid. And finally, determine the amount of released histamines in the tested solution by fluorescence method. By the analysis, results of the inhibiting rate of histamines could be calculated.
Locke's solution is instead of each drug in control group, and instead of both drug and 48/80 compound solution in blank group.
The histamine releasing rate (A) can be calculated by following equation. […] Where (Hs) is the total amount of histamine in the decanted solution, and (Hr) is the total amount of histamine in the sediment. (A)=[(Hs)/{(Hs)+(Hr)}]×100%. Then the inhibiting rate is:
=100−[(A−A in blank group)/(A−A in control group)]×100%.

mice = assay: Anti-delayed type allergy reaction, oxazolone ear inflammation; format: in vivo, mouse; settings: drug 2.0 w/v % in oxazolone acetone solution, 10 μl on right ear, 24 hr; for Inhibiting rate (%) (adding 0.1 w/v % of drug): with 0.1 w/v % of caffeine; for Inhibiting rate (%) (non-caffeine added): without caffeine
Description: The weights of testing mice are ranging from 20 g to 30 g. They are coated with 0.1 ml of oxazolone alcohol solution (0.5 w/v %) on the hair cleaned part of abdomen. […] After 24 hr, the mouse is killed by ether and punched a circle area of a diameter of 5.5 mm on both right and left ears in corresponding part by a puncher machine (portions of drug coated and the blank). The punched portions are weighed and the inflammation rates calculated. The control group are coated only with the oxazolone acetone solution (0.5 w/v %). The inflammation inhibiting rates of each drug are calculated by following equation: Inflammation inhibiting rate (%)=[(weight of drug-coated right ear)−(weight of non-drug-coated left ear)]×100%/(weight of non-drug-coated left ear)

person = assay: Tests for increase the ability of learning and memory; format: in vivo, human; settings: three pieces of 600 mg, average of four tests before and after ingesting; for change in vivo at 1800 mg: Homo sapiens, po, read-out: Increase rate (%) of memory ability
Description: A person administrates see a random series of 100 numbers, typed by PC, for 10 minutes and memory it. Then recite and write down the memorized number series. To check the recited series with the original one to see how many numbers are correct. In each testing at least has 10 minutes interval, and repeat four times. […] Each kind of drugs testing is done in half day, morning or afternoon only. The testing results were counted by one correct number for one point. Make the average value of four times testing of before and after drug ingesting, respectively. The increase of learning or memory ability is calculated by following equation and listed in Table 14: Rate of increase of memory ability=[(average value of four time testing before ingesting drug)−(average value of four times testing after ingesting drug)]×100%/(average value of four time testing before ingesting drug)

[2] = test system: patients with toothache caused by a crowned tooth swelling; assay: Analgesia and suppuration for tooth; format: in vivo, human; settings: 2 g every two hours
From the text: It is not a best method in treating a toothache caused by a crowned tooth swelling that the ill tooth must be extracted or the crown must be destructed first. […] About 8 and 10 days were needed to suppurate and recovery completely when they could chew again. This method can keep the ill tooth without extraction.

[3] = adding 5% of coffee extract, read-out: inhibiting rate (%) (adding 5% of coffee extract)
[4] = non adding coffee extract, read-out: Inhibiting rate (%) (non adding coffee extract)

With O=C(O)CC(O)(CC(=O)O)C(=O)O [Citric acid] the inhibition at 100 µg/mL [1, 3] was 100%, the inhibition at 100 µg/mL [1, 4] was 100% and the “Inhibiting rate (%) (adding 0.1 w/v % of drug)” value (mice) was 100%. For the same compound, the “Inhibiting rate (%) (non-caffeine added)” value (mice) was 100% and the change in vivo at 1800 mg (person) was 360%.

With CN(C)CCOC(c1ccccc1)c1ccccc1 [Diphenhydramine hydrochloride, reference compound] the inhibition at 100 µg/mL [1, 3] was 50.4%, the inhibition at 100 µg/mL [1, 4] was 32.1% and the “Inhibiting rate (%) (adding 0.1 w/v % of drug)” value (mice) was 20%. For the same compound, the “Inhibiting rate (%) (non-caffeine added)” value (mice) was 20%.

In the case of O=C(O)/C=C/C(=O)O [Fumaric acid], the inhibition at 100 µg/mL [1, 3] is reported as 100%, the inhibition at 100 µg/mL [1, 4] is reported as 100% and the “Inhibiting rate (%) (adding 0.1 w/v % of drug)” value (mice) is reported as 100%. For the same compound, the “Inhibiting rate (%) (non-caffeine added)” value (mice) was 98% and the change in vivo at 1800 mg (person) was 300%.

CC(O)C(=O)O (stereo not shown) [Lactic acid] was tested, and the inhibition at 100 µg/mL [1, 3] was 100%, the inhibition at 100 µg/mL [1, 4] was 100% and the “Inhibiting rate (%) (adding 0.1 w/v % of drug)” value (mice) was 98%. For the same compound, the “Inhibiting rate (%) (non-caffeine added)” value (mice) was 97% and the change in vivo at 1800 mg (person) was 280%.

In the case of O=C(O)CC(O)C(=O)O (stereo not shown) [Malic acid], the inhibition at 100 µg/mL [1, 3] is reported as 100%, the inhibition at 100 µg/mL [1, 4] is reported as 100% and the “Inhibiting rate (%) (adding 0.1 w/v % of drug)” value (mice) is reported as 100%. The “Inhibiting rate (%) (non-caffeine added)” value (mice) was 96%, the “Days needed to suppurate and recovery completely” value ([2]; one value per patient) was “About 8 days and ~10 days” and the Toothache pain ([2]; two patients) was “pains were killed”. It also gave a change in vivo at 1800 mg (person) of 315%.

In the case of O=C(O)C(O)C(O)C(=O)O (stereo not shown) [Tartaric acid], the inhibition at 100 µg/mL [1, 3] is reported as 100%, the inhibition at 100 µg/mL [1, 4] is reported as 100% and the “Inhibiting rate (%) (adding 0.1 w/v % of drug)” value (mice) is reported as 99%. For the same compound, the “Inhibiting rate (%) (non-caffeine added)” value (mice) was 97% and the change in vivo at 1800 mg (person) was 305%.

O=C(O)CO [α-hydroxy ethanoic acid] was tested, and the “inhibiting rate (%) (adding 5% of coffee extract)” value ([1]; adding 5% of coffee extract) was 100%, the “Inhibiting rate (%) (non adding coffee extract)” value ([1]; non adding coffee extract) was 100% and the “Increase rate (%) of memory ability” value (person) was 300%.

CCCCCCC(O)C(=O)O (stereo not drawn) [α-hydroxy octanoic acid] showed an inhibition at 100 µg/mL [1, 3] of 100%, an inhibition at 100 µg/mL [1, 4] of 100% and a change in vivo at 1800 mg (person) of 300%.
